According to US9523081B2, “Method for enhancing therapeutic effect of stem cells on autoimmune diseases, cardiovascular diseases, and/or hematological diseases” (GWO XI STEM CELL APPLIED TECHNOLOGY CO., LTD., priority 2014, dated 2016):

Tests used:
Format in all cases: cell-based
[1] = system: BDNF; assay: RT-PCR gene expression of BDNF in ligustilide-treated ADSCs; conditions: for BDNF expression level (Image J): ADSCs, 24 hours
Protocol: (§1) ADSCs were cultured in the K-SFM as prepared in Example 1 at 37° C. in 5% CO2. The ADSCs were divided into […], and each group was treated with different concentrations (0, 0.625, 1.25, 2.5, 5 and 10 μg/ml) of (Z)-ligustilide for 24 hours, respectively.
(§2) The culture medium were removed from each group of stem cells in Experiment (1), then 1 ml of TRIzol reagent (Invitrogen) was added into each well and incubated at room temperature for 5 minutes. The stem cells were scraped by using a spatula and placed into a 1.5 ml microtube. Then, the cells were lysed completely, and 0.2 ml of trichloromethane (CHCl3) was added into the microtube. The microtube was shaken up and down for 15 seconds and incubated at room temperature for 2 to 3 minutes. The mixture was centrifuged (at 12000 g for 15 minutes at 4° C.). The supernatant was transferred into another 1.5 ml microtube, and 0.5 ml of isopropanol was added therein and mixed completely. The mixture was incubated at room temperature for 10 minutes and then centrifuged (at 12000 g for 10 minutes at 4° C.). The supernatant was removed. The remained sediment was washed with 1 ml of 75% ethanol-containing DEPC water (i.e. diethylpyrocarbonate-treated H2O) and centrifuged (7500 g at 4° C. for 5 minutes) again. The supernatant was removed. The remained sediment was dried by vacuum-pumping. The dried sediment was dissolved in about 0.01 ml to 0.02 ml of DEPC water to obtain total RNA of ADSCs of experimental group and blank group, respectively. The absorbance at a wavelength of 260 nm (OD260) of the samples were determined by a spectrophotometer (DU-800, Beckman) to evaluate the concentration of RNA. Then, the RNA was stored at −80° C. and used in the following Experiment (3).
(§3) The effects of ligustilide on increasing the expression of differentiation-promoting genes (e.g., BDNF and NURR1), increasing the expression of homing-promoting genes (e.g., CXCR4 and SDF1αβ), and decreasing the expression of inflammatory genes (e.g., IL-6 and IL-8) was analyzed by reverse transcription polymerase chain reaction (RT-PCR), wherein the gene expression of glyceraldehyde 3-phosphate dehydrogenase (GAPDH) was served as a control group, and the steps were described as follows.
(§4) The total RNA provided in the above Experiment (2) was reverse transcribed into cDNA. 2.5 μl of each primer (10 pM) shown in Table 1A, 7.5 μl of ddH2O, and 12.5 μl of EconoTaq® PLUS GREEN 2X Master Mix (Lucigen, Middleton, Wis., USA) were mixed with 2.5 μl of the cDNA. The mixture was placed in a RT-PCR machine. The reaction conditions were set as follows: i) 94° C. for 30 seconds, 55° C. for 30 seconds, and […], with 30 cycles of the aforesaid steps; ii) 72° C. for 10 minutes; and iii) cooling to 4° C. to stop the reaction
(§5) The obtained RT-PCR product was analyzed by 1.5% agarose gel electrophoresis for 30 minutes (voltage: 100 volts (V)). Then, the gel was placed in and stained with ethidium bromide (EtBr) for 10 minutes, and photographed by a gel image documentation system (DOC PRINT DP-001FDC, VilberLourmat France).

[2] = system: NURR1; assay: RT-PCR gene expression of NURR1 in ligustilide-treated ADSCs; conditions: for NURR1 expression level (Image J): ADSCs, 24 hours
Protocol: as §1, §2, §3, §4, §5

[3] = system: CXCR4; assay: RT-PCR gene expression of CXCR4 in ligustilide-treated ADSCs; conditions: for CXCR4 expression level (Image J): ADSCs, 24 hours
Protocol: as §1, §2, §3, §4, §5

[4] = system: SDF1αβ; assay: RT-PCR gene expression of SDF1αβ in ligustilide-treated ADSCs; conditions: for SDF1αβ expression level (Image J): ADSCs, 24 hours
Protocol: as §1, §2, §3, §4, §5

[5] = system: IL-6; assay: RT-PCR gene expression of IL-6 in ligustilide-treated ADSCs; conditions: for IL-6 expression level (Image J): ADSCs, 24 hours
Protocol: as §1, §2, §3, §4, §5

[6] = system: IL-8; assay: RT-PCR gene expression of IL-8 in ligustilide-treated ADSCs; conditions: for IL-8 expression level (Image J): ADSCs, 24 hours
Protocol: as §1, §2, §3, §4, §5

[7] = ADSCs treated with ligustilide, compared to GAPDH control, in words

With `CCC/C=C1\OC(=O)C2=C1CCC=C2` [ligustilide, (Z)-ligustilide] the “gene expression level of BDNF” value [1, 7] was “increased”, the “BDNF expression level (Image J)” value ([1]; 0.625 μg/ml ligustilide) was 5411.77 and the “BDNF expression level (Image J)” value ([1]; 1.25 μg/ml ligustilide) was 4915.77. For the same molecule, the “BDNF expression level (Image J)” value ([1]; 2.5 μg/ml ligustilide) was 7069.72, the “BDNF expression level (Image J)” value ([1]; 5 μg/ml ligustilide) was 5083.65 and the “gene expression level of NURR1” value [2, 7] was “increased”. For the same molecule, the “NURR1 expression level (Image J)” value ([2]; 0.625 μg/ml ligustilide) was 0.00, the “NURR1 expression level (Image J)” value ([2]; 1.25 μg/ml ligustilide) was 0.00 and the “NURR1 expression level (Image J)” value ([2]; 2.5 μg/ml ligustilide) was 6694.43. For the same molecule, the “NURR1 expression level (Image J)” value ([2]; 5 μg/ml ligustilide) was 3360.55, the “gene expression level of CXCR4” value [3, 7] was “increased” and the “CXCR4 expression level (Image J)” value ([3]; 0.625 μg/ml ligustilide) was 2744.11. For the same molecule, the “CXCR4 expression level (Image J)” value ([3]; 1.25 μg/ml ligustilide) was 3719.23, the “CXCR4 expression level (Image J)” value ([3]; 2.5 μg/ml ligustilide) was 6539.03 and the “CXCR4 expression level (Image J)” value ([3]; 5 μg/ml ligustilide) was 4138.77. The “gene expression level of SDF1αβ” value [4, 7] was “increased”, the “SDF1αβ expression level (Image J)” value ([4]; 0.625 μg/ml ligustilide) was 6766.31 and the “SDF1αβ expression level (Image J)” value ([4]; 1.25 μg/ml ligustilide) was 4065.23. The “SDF1αβ expression level (Image J)” value ([4]; 2.5 μg/ml ligustilide) was 4791.36, the “SDF1αβ expression level (Image J)” value ([4]; 5 μg/ml ligustilide) was 5767.31 and the “gene expression level of IL-6” value [5, 7] was “decreased”. For the same molecule, the “IL-6 expression level (Image J)” value ([5]; 0.625 μg/ml ligustilide) was 7756.00, the “IL-6 expression level (Image J)” value ([5]; 1.25 μg/ml ligustilide) was 8204.13 and the “IL-6 expression level (Image J)” value ([5]; 2.5 μg/ml ligustilide) was 5629.93. For the same molecule, the “IL-6 expression level (Image J)” value ([5]; 5 μg/ml ligustilide) was 2804.03, the “gene expression level of IL-8” value [6, 7] was “decreased” and the “IL-8 expression level (Image J)” value ([6]; 0.625 μg/ml ligustilide) was 6102.10. For the same molecule, the “IL-8 expression level (Image J)” value ([6]; 1.25 μg/ml ligustilide) was 9691.71, the “IL-8 expression level (Image J)” value ([6]; 2.5 μg/ml ligustilide) was 5840.23 and the “IL-8 expression level (Image J)” value ([6]; 5 μg/ml ligustilide) was 3487.33.
